A short description of data set [1]: in vitro. Particulars: human.
Data set [2] in a line: in vitro. Particulars: hepatocytes.
A short description of the next data set: physchem. Conditions: octan-1-ol/water.

As a reminder, the microsomal CLint is the capacity of the preparation to metabolise the compound, expressed as a volume cleared per time. One may read the hepatocyte CLint as the capacity of the preparation to metabolise the compound, expressed as a volume cleared per time. Turning to `CC(C)c1ccc(NC(=O)Cn2cnc3c2c(=O)n(C)c(=O)n3C)cc1`, the microsomal CLint in the data set “in vitro [1]” (microsomes) turned out to be 18.2 µL/min/mg. The hepatocyte CLint in the data set “in vitro [2]” came to 16.6 µL/min/1e6 cells.
For the compound `Oc1nc2c(O)ccc(CCNCCOCCCOCCc3ccccc3)c2s1`, the microsomal CLint in the data set “in vitro [1]” (liver microsomes) is 56 µL/min/mg. The same compound returned a hepatocyte CLint in the data set “in vitro [2]” greater than 150 µL/min/1e6 cells.
The matching figures for `CN(CCc1ccc(O)c2[nH]c(=O)sc12)CCN(C)C(=O)CCOCCc1ccccc1`: greater than 150 µL/min/mg and greater than 150 µL/min/1e6 cells.
With `CC(=O)N1N=C(c2ccc(Br)cc2)CC1c1ccc(C)cc1` (stereo not drawn), in the data set “in vitro [1]” (liver microsomes), the intrinsic metabolic clearance (microsomal CLint) was found to be 41.7 µL/min/mg. In “in vitro [2]”, the hepatocyte CLint is 30.9 µL/min/1e6 cells.
`CCn1c(SCC(=O)Nc2cc(C)on2)nnc1-c1ccccc1` displayed an intrinsic metabolic clearance (microsomal CLint) in “in vitro [1]” (liver microsomes) of 32.4 µL/min/mg. In “in vitro [2]”, the hepatocyte CLint was greater than 150 µL/min/1e6 cells.
As to `O=C(NCc1ccccc1)c1cc(-c2ccco2)on1`, the intrinsic clearance (microsomal CLint) in the data set “in vitro [1]” (liver microsomes) is 70.8 µL/min/mg. The compound also yielded a hepatocyte CLint in “in vitro [2]” of 138 µL/min/1e6 cells.
`CCn1c(SCC(=O)Nc2cc(C)on2)nnc1-c1cccnc1` displayed a microsomal CLint in the data set “in vitro [1]” (microsomes) of 7.76 µL/min/mg. The compound also returned a hepatocyte CLint in the data set “in vitro [2]” of 75.9 µL/min/1e6 cells.
Taken in the same sequence, the figures for `Cc1ccc(-c2nnc(SCC(=O)N3CCN(c4ccccc4)CC3)o2)cc1` were greater than 150 µL/min/mg and greater than 150 µL/min/1e6 cells.
The matching figures for `CCCCn1c(SCC(=O)Nc2cc(C)on2)nnc1-c1ccco1`: greater than 150 µL/min/mg and greater than 150 µL/min/1e6 cells.
In the case of `O=C(c1cccc(Cl)c1Cl)N1CCN(c2ccccn2)CC1`, the microsomal CLint in the data set “in vitro [1]” (liver microsomes) was greater than 150 µL/min/mg. Further, the intrinsic clearance (hepatocyte CLint) in “in vitro [2]” was greater than 150 µL/min/1e6 cells.
Broadly, the logD is the decadic logarithm of the distribution of all forms, ionised or not, between an organic phase and buffer at a given pH. Read a low logD as a more hydrophilic compound. In the data set “in vitro [1]” (liver microsomes), `O=C(C1CCN(c2nnc(-n3cccc3)s2)CC1)N1CCc2ccccc2C1` had a microsomal CLint of 83.2 µL/min/mg. In “physchem” (pH 7.4), this compound registered a logD of 3.7. In addition, the hepatocyte CLint in the data set “in vitro [2]” was 46.8 µL/min/1e6 cells.
In turn, `CCOC(=O)c1c(-c2ccccc2)nc2cc(C)ccn12` returned a microsomal CLint in the data set “in vitro [1]” (microsomes) greater than 150 µL/min/mg. Besides, the logD in the data set “physchem” (pH 7.4) stood at 3.8. The same compound came in with a hepatocyte CLint in the data set “in vitro [2]” of 148 µL/min/1e6 cells.
`CCOC(=O)CN(c1ccccc1C)S(=O)(=O)c1ccc(Cl)cc1` displayed an intrinsic metabolic clearance (microsomal CLint) in the data set “in vitro [1]” (liver microsomes) of 94 µL/min/mg. The compound further had an intrinsic metabolic clearance (hepatocyte CLint) in “in vitro [2]” greater than 150 µL/min/1e6 cells.
On to `COc1ccc(CNC(=O)CSc2nc3cccnc3s2)cc1`, for which, in “in vitro [1]” (microsomes), the intrinsic clearance (microsomal CLint) is greater than 150 µL/min/mg. The logD in “physchem” (pH 7.4, LogD7.4) was 2.5. In “in vitro [2]”, this compound displayed a hepatocyte CLint greater than 150 µL/min/1e6 cells.
In the data set “in vitro [1]” (liver microsomes), `Cc1cccc(NC(=O)Nc2cccc3ccccc23)c1` returned a microsomal CLint of 70.8 µL/min/mg. Further, the hepatocyte CLint in the data set “in vitro [2]” was found to be 91.2 µL/min/1e6 cells.
In the case of `O=C(O)CCc1ccc(OCc2cccc(Oc3ccccc3)c2)cc1`, the microsomal CLint in “in vitro [1]” (microsomes) amounted to 4.9 µL/min/mg. In “physchem” (pH 7.4, LogD7.4), this compound gave a logD of 2.47. In addition, in the data set “in vitro [2]”, the hepatocyte CLint amounted to 97.7 µL/min/1e6 cells.
Take `CS(=O)(=O)c1ccc(-c2cnc(N)c(C(=O)Nc3ccccc3)n2)cc1`: the intrinsic clearance (microsomal CLint) in the data set “in vitro [1]” (microsomes) was 4.17 µL/min/mg. Further, in the data set “in vitro [2]”, the hepatocyte CLint was found to be 19.1 µL/min/1e6 cells.
For the compound `CCOc1ccc2oc(C(=O)NC(CCSC)c3nc4ncccc4[nH]3)c(C)c2c1` (stereo not drawn), in “in vitro [1]” (liver microsomes), the intrinsic metabolic clearance (microsomal CLint) is greater than 150 µL/min/mg. For the same compound, in “in vitro [2]”, the hepatocyte CLint is 46 µL/min/1e6 cells.
`O=c1[nH]c2c(O)ccc([C@@H](O)CNCCSCCCOCCc3ccccc3)c2s1` came in with a microsomal CLint in “in vitro [1]” (microsomes) of 75 µL/min/mg. The compound also gave a logD in the data set “physchem” (pH 7.4, LogD7.4) of 2.54. The compound further displayed a hepatocyte CLint in “in vitro [2]” greater than 150 µL/min/1e6 cells.
In turn, `CC(C)CNc1nc(N2CCN(CC3CCCOC3)CC2)ncc1C(=O)NCc1ccccc1` (stereo not drawn) yielded a microsomal CLint in the data set “in vitro [1]” (liver microsomes) of 95.5 µL/min/mg. In the data set “in vitro [2]”, this compound had a hepatocyte CLint of 89.1 µL/min/1e6 cells.
In “in vitro [1]” (microsomes), `CN(CC(=O)N(Cc1ccc(C2CCCCC2)cc1)c1ccc(C(=O)O)c(O)c1)S(=O)(=O)c1c(F)c(F)c(F)c(F)c1F` registered a microsomal CLint of 129 µL/min/mg. This compound also displayed an intrinsic clearance (hepatocyte CLint) in “in vitro [2]” of 74.1 µL/min/1e6 cells.
The matching figures for `Cc1ccc(NC(=O)c2cccc(N3CCOCC3)c2)cc1NC(=O)c1ccc(OCc2cscn2)cc1`: 23 µL/min/mg and 20 µL/min/1e6 cells.
In turn, `O=c1[nH]c2c(O)ccc([C@@H](O)CNCCc3cccc(CNCc4ccccc4Cl)c3)c2s1` had a microsomal CLint in the data set “in vitro [1]” (liver microsomes) of 47 µL/min/mg. Further, the logD in the data set “physchem” (pH 7.4, LogD7.4) is 1.85. Further, in “in vitro [2]”, the intrinsic metabolic clearance (hepatocyte CLint) is 60 µL/min/1e6 cells.
In turn, `O=c1[nH]c2c(O)ccc([C@@H](O)CNCCOc3cccc(CNCCc4ccccc4F)c3)c2s1` came in with a microsomal CLint in the data set “in vitro [1]” (microsomes) of 14 µL/min/mg. Moreover, in the data set “physchem” (pH 7.4, LogD7.4), the logD came out at 1.86. Besides, in the data set “in vitro [2]”, the hepatocyte CLint was determined as 23 µL/min/1e6 cells.
For the compound `O=c1[nH]c2c(O)ccc([C@@H](O)CNCCc3cccc(CN4CCC(c5ccccc5)CC4)c3)c2s1`, the microsomal CLint in the data set “in vitro [1]” (microsomes) is 27 µL/min/mg. The logD in the data set “physchem” (pH 7.4, LogD7.4) amounted to 1.99. The compound further showed a hepatocyte CLint in “in vitro [2]” of 29 µL/min/1e6 cells.
With `O=c1c2c3n(c(=O)cc2[nH]n1-c1ccccc1Cl)CCCN(Cc1ccccc1)C3`, in the data set “in vitro [1]” (microsomes), the microsomal CLint is 32.4 µL/min/mg. In “in vitro [2]”, this compound returned a hepatocyte CLint of less than 3 µL/min/1e6 cells.
The matching figures for `N#Cc1ccc(C(=O)Nc2ccc(-n3ccnc3)nc2)cc1`: 6.31 µL/min/mg and 20.4 µL/min/1e6 cells.
As for `Nc1ccc(-c2ccccc2Cl)cc1`, the microsomal CLint in the data set “in vitro [1]” (microsomes) was 39.8 µL/min/mg. The compound further returned a hepatocyte CLint in “in vitro [2]” of 123 µL/min/1e6 cells.
Regarding `O=C(Nc1cc(-c2ccnc(Nc3ccc(F)cc3)c2)ccn1)C1CCOCC1`, the intrinsic metabolic clearance (microsomal CLint) in “in vitro [1]” (microsomes) was determined as 6.03 µL/min/mg. Besides, in the data set “in vitro [2]”, the hepatocyte CLint is greater than 150 µL/min/1e6 cells.
The matching figures for `N#Cc1cnc(N2CCN(C(=O)[C@@H]3CCCC[C@H]3C(=O)NC3(C#N)CC3)CC2)s1`: 6.76 µL/min/mg and 5.25 µL/min/1e6 cells.

These data come from ChEMBL document CHEMBL3301361, “Experimental in vitro DMPK and physicochemical data on a set of publicly disclosed compounds”.
